Source: patent US20190374554A1, “USE OF OXYGENATED CHOLESTEROL SULFATES (OCS) TO TREAT INFLAMMATORY SKIN DISEASE AND SKIN LESIONS” (Virginia Commonwealth University, priority 2016, published 2019)
Where “and” joins values, the source holds several entries; their conditions need not be identical. Equal values may be shown once.

How the values were obtained:
[1] = tested on: Beagle dogs; assay: Two-week SC injection study in dogs; assay type: in vivo
Protocol: In a separate study, Beagle dogs (n=4/sex/dose group) received daily SC injections for 2 weeks. The solution that was tested included 30 mg/mL of 25HC3 S sodium salt in vehicle (250 mg/mL hydroxypropyl-β-cyclodextrin in 10 mM sodium phosphate buffer). Dose levels of 0 (vehicle), 3, 10 and 30 mg/kg of 25HC3S were administered in dose volumes of 1.0, 0.1, 0.33 and 1.0 mL/kg. Following 14 days of dose administration, all dogs were euthanized and necropsied.

[2] = Infusion compatibility: 25HC3S diluted in 0.9% sodium chloride infusion bag and eluted through infusion sets (potency, osmolality, pH, appearance); assay type: physicochemical
Protocol: A physical and chemical compatibility study was conducted at a 30 mg, 48 mg and 300 mg 25HC3S dose in 5% dextrose and 0.9% sodium chloride infusion bags. Descriptions of the two kinds of infusion sets tested with 25HC3S product diluted in 5% dextrose and 0.9% sodium chloride are listed in Table 15. The tubing in catalog number 2H8480 infusion set was composed of polyvinylchloride (PVC), while the tubing in catalog number 2C8858 was polyethylene lined except for a short pump segment (approximately 12 inches) which was composed of PVC.
25HC3S for Injection and Vehicle for 25HC3S for Injection, that had been stored at 2-8° C. for approximately 16 months, were used for the compatibility study. After constitution, 30 mg (1.0 mL of constituted product), 48 mg (1.6 mL of constituted product) or 300 mg (10 mL of constituted product) were added to 100 mL infusion bags of 5% dextrose and 0.9% sodium chloride, mixed thoroughly, and stored for 24 hours at room temperature and at 2-8° C. […] Taking into consideration the overfill per infusion bag and the additional volume introduced by adding the constituted 25HC3S product to each bag, the expected concentrations of 25HC3S were 0.28 mg/mL, 0.44 mg/mL, and 2.56 mg/mL in the infusion bags. Two kinds of infusion sets were then attached to the drug containing infusion bags, and the entire contents were eluted through the infusion sets at approximately 50 mL/hour at room temperature. Samples were collected from the 25HC3S prepared infusion bags at T=0 and at 24 hours, and from the total eluent passed through the infusion sets, and tested for 25HC3S concentration using HPLC. Solution visual appearance, osmolality (using method USP<785>), and pH (using method USP<791>) were also measured on the collected samples.

[3] = 0.9% sodium chloride bag, approx. 0.28 mg/mL 25HC3S
[4] = 0.9% sodium chloride bag, approx. 0.44 mg/mL 25HC3S
[5] = 0.9% sodium chloride bag, approx. 2.56 mg/mL 25HC3S
[6] = 0.9% sodium chloride, approx. 0.28 mg/mL, bag 24 h at 2-8° C., Baxter 2C8858
[7] = 0.9% sodium chloride, approx. 0.28 mg/mL, bag 24 h at 2-8° C., Baxter 2H8480
[8] = 0.9% sodium chloride, approx. 0.28 mg/mL, bag 24 h at 25° C., Baxter 2C8858
[9] = 0.9% sodium chloride, approx. 0.28 mg/mL, bag 24 h at 25° C., Baxter 2H8480
[10] = 0.9% sodium chloride, approx. 0.44 mg/mL, bag 24 h at 2-8° C., Baxter 2C8858
[11] = 0.9% sodium chloride, approx. 0.44 mg/mL, bag 24 h at 2-8° C., Baxter 2H8480
[12] = 0.9% sodium chloride, approx. 0.44 mg/mL, bag 24 h at 25° C., Baxter 2C8858
[13] = 0.9% sodium chloride, approx. 0.44 mg/mL, bag 24 h at 25° C., Baxter 2H8480
[14] = 0.9% sodium chloride, approx. 2.56 mg/mL, bag 24 h at 2-8° C., Baxter 2C8858
[15] = 0.9% sodium chloride, approx. 2.56 mg/mL, bag 24 h at 2-8° C., Baxter 2H8480
[16] = 0.9% sodium chloride, approx. 2.56 mg/mL, bag 24 h at 25° C., Baxter 2C8858
[17] = 0.9% sodium chloride, approx. 2.56 mg/mL, bag 24 h at 25° C., Baxter 2H8480
[18] = sodium chloride, approximately 0.28 mg/mL 25HC3S
[19] = sodium chloride, approximately 0.44 mg/mL 25HC3S
[20] = sodium chloride, approximately 2.56 mg/mL 25HC3S

C[C@H](CCCC(C)(C)O)[C@H]1CC[C@H]2[C@@H]3CC=C4C[C@@H](OS(=O)(=O)[O-])CC[C@]4(C)[C@H]3CC[C@]12C.[Na+] [Formulation 25HC3S, 5-cholesten-3, 25-diol, 3-sulfate]
swelling at the site of injection ([1]; daily SC 2 weeks, compared to vehicle only (FIG. 1C)): markedly decreased | fibroplasia, hemorrhage, inflammation and necrosis in injection sites: incidence and severity ([1]; daily SC 3, 10, 30 mg/kg, 2 weeks (FIG. 1B)): generally higher in vehicle controls compared to drug-treated dogs | 24 Hours at 2-8° C. Concentration [2, 3]: 0.275 mg/mL | 24 Hours at 2-8° C. Osmolality [2, 3]: 276 mmol/kg | 24 Hours at 2-8° C. pH [2, 3]: 5.87 and 5.99 | 24 Hours at 25° C. Concentration [2, 3]: 0.272 mg/mL and 0.274 mg/mL | 24 Hours at 25° C. Osmolality [2, 3]: 275 mmol/kg and 277 mmol/kg | 24 Hours at 25° C. pH [2, 3]: 5.93 and 5.92 | T = 0 Conc. [2, 3]: 0.273 mg/mL and 0.274 mg/mL and 0.275 mg/mL | T = 0 Osmolality [2, 3]: 278 mmol/kg and 277 mmol/kg | T = 0 pH [2, 3]: 6.39 and 6.43 and 6.45 and 6.40 | 24 Hours at 2-8° C. % Remaining Compared to T = 0 [2, 4]: (100.0%) | 24 Hours at 2-8° C. Concentration [2, 4]: 0.434 mg/mL and 0.425 mg/mL | 24 Hours at 2-8° C. Osmolality [2, 4]: 281 mmol/kg | 24 Hours at 2-8° C. pH [2, 4]: 7.43 and 7.19 | 24 Hours at 25° C. % Remaining Compared to T = 0 [2, 4]: (100.0%) | 24 Hours at 25° C. Concentration [2, 4]: 0.434 mg/mL and 0.424 mg/mL | 24 Hours at 25° C. Osmolality [2, 4]: 280 mmol/kg | 24 Hours at 25° C. pH [2, 4]: 7.33 and 7.41 | T = 0 Conc. [2, 4]: 0.434 mg/mL and 0.424 mg/mL and 0.425 mg/mL | T = 0 Osmolality [2, 4]: 277 mmol/kg and 279 mmol/kg and 284 mmol/kg and 280 mmol/kg | T = 0 pH [2, 4]: 7.30 and 7.43 and 7.21 and 7.44 | 24 Hours at 2-8° C. Concentration [2, 5]: 2.510 mg/mL and 2.520 mg/mL | 24 Hours at 2-8° C. Osmolality [2, 5]: 283 mmol/kg | 24 Hours at 2-8° C. pH [2, 5]: 5.93 and 5.96 | 24 Hours at 25° C. Concentration [2, 5]: 2.500 mg/mL and 2.525 mg/mL | 24 Hours at 25° C. Osmolality [2, 5]: 282 mmol/kg | 24 Hours at 25° C. pH [2, 5]: 6.01 and 5.86 | T = 0 Conc. [2, 5]: 2.450 mg/mL and 2.530 mg/mL and 2.525 mg/mL | T = 0 Osmolality [2, 5]: 282 mmol/kg and 281 mmol/kg | T = 0 pH [2, 5]: 6.20 and 6.10 and 6.07 and 6.11 | After Storage in Infusion Bag and Collection from Infusion Set % Remaining Compared to T = 0 [2, 6]: (100.0%) | After Storage in Infusion Bag and Collection from Infusion Set Concentration [2, 6]: 0.275 mg/mL | After Storage in Infusion Bag and Collection from Infusion Set Osmolality [2, 6]: 276 mmol/kg | After Storage in Infusion Bag and Collection from Infusion Set pH [2, 6]: 5.78 | After Storage in Infusion Bag and Collection from Infusion Set % Remaining Compared to T = 0 [2, 7]: (100.4%) | After Storage in Infusion Bag and Collection from Infusion Set Concentration [2, 7]: 0.275 mg/mL | After Storage in Infusion Bag and Collection from Infusion Set Osmolality [2, 7]: 277 mmol/kg | After Storage in Infusion Bag and Collection from Infusion Set pH [2, 7]: 5.81 | After Storage in Infusion Bag and Collection from Infusion Set % Remaining Compared to T = 0 [2, 8]: (100.0%) | After Storage in Infusion Bag and Collection from Infusion Set Concentration [2, 8]: 0.274 mg/mL | After Storage in Infusion Bag and Collection from Infusion Set Osmolality [2, 8]: 276 mmol/kg | After Storage in Infusion Bag and Collection from Infusion Set pH [2, 8]: 5.83 | After Storage in Infusion Bag and Collection from Infusion Set % Remaining Compared to T = 0 [2, 9]: (99.6%) | After Storage in Infusion Bag and Collection from Infusion Set Concentration [2, 9]: 0.272 mg/mL | After Storage in Infusion Bag and Collection from Infusion Set Osmolality [2, 9]: 276 mmol/kg | After Storage in Infusion Bag and Collection from Infusion Set pH [2, 9]: 5.78 | After Storage in Infusion Bag and Collection from Infusion Set % Remaining Compared to T = 0 [2, 10]: (100.2%) | After Storage in Infusion Bag and Collection from Infusion Set Concentration [2, 10]: 0.426 mg/mL | After Storage in Infusion Bag and Collection from Infusion Set Osmolality [2, 10]: 281 mmol/kg | After Storage in Infusion Bag and Collection from Infusion Set pH [2, 10]: 7.16 | After Storage in Infusion Bag and Collection from Infusion Set % Remaining Compared to T = 0 [2, 11]: (100.0%) | After Storage in Infusion Bag and Collection from Infusion Set Concentration [2, 11]: 0.434 mg/mL | After Storage in Infusion Bag and Collection from Infusion Set Osmolality [2, 11]: 282 mmol/kg | After Storage in Infusion Bag and Collection from Infusion Set pH [2, 11]: 7.13 | After Storage in Infusion Bag and Collection from Infusion Set % Remaining Compared to T = 0 [2, 12]: (100.0%) | After Storage in Infusion Bag and Collection from Infusion Set Concentration [2, 12]: 0.424 mg/mL | After Storage in Infusion Bag and Collection from Infusion Set Osmolality [2, 12]: 288 mmol/kg | After Storage in Infusion Bag and Collection from Infusion Set pH [2, 12]: 7.20 | After Storage in Infusion Bag and Collection from Infusion Set % Remaining Compared to T = 0 [2, 13]: (99.8%) | After Storage in Infusion Bag and Collection from Infusion Set Concentration [2, 13]: 0.433 mg/mL | After Storage in Infusion Bag and Collection from Infusion Set Osmolality [2, 13]: 286 mmol/kg | After Storage in Infusion Bag and Collection from Infusion Set pH [2, 13]: 7.09 | After Storage in Infusion Bag and Collection from Infusion Set % Remaining Compared to T = 0 [2, 14]: (99.8%) | After Storage in Infusion Bag and Collection from Infusion Set Concentration [2, 14]: 2.520 mg/mL | After Storage in Infusion Bag and Collection from Infusion Set Osmolality [2, 14]: 283 mmol/kg | After Storage in Infusion Bag and Collection from Infusion Set pH [2, 14]: 5.70 | After Storage in Infusion Bag and Collection from Infusion Set % Remaining Compared to T = 0 [2, 15]: (100.0%) | After Storage in Infusion Bag and Collection from Infusion Set Concentration [2, 15]: 2.530 mg/mL | After Storage in Infusion Bag and Collection from Infusion Set Osmolality [2, 15]: 283 mmol/kg | After Storage in Infusion Bag and Collection from Infusion Set pH [2, 15]: 5.72 | After Storage in Infusion Bag and Collection from Infusion Set % Remaining Compared to T = 0 [2, 16]: (99.6%) | After Storage in Infusion Bag and Collection from Infusion Set Concentration [2, 16]: 2.520 mg/mL | After Storage in Infusion Bag and Collection from Infusion Set Osmolality [2, 16]: 279 mmol/kg | After Storage in Infusion Bag and Collection from Infusion Set pH [2, 16]: 5.83 | After Storage in Infusion Bag and Collection from Infusion Set % Remaining Compared to T = 0 [2, 17]: (100.4%) | After Storage in Infusion Bag and Collection from Infusion Set Concentration [2, 17]: 2.460 mg/mL | After Storage in Infusion Bag and Collection from Infusion Set Osmolality [2, 17]: 283 mmol/kg | After Storage in Infusion Bag and Collection from Infusion Set pH [2, 17]: 5.81 | deviation of 25HC3S concentrations from the initial T=0 time point ([2]; 0.9% sodium chloride, after 24 hours at room temperature and at 2-8° C., and after elution through infusion sets): ≤ 2.0% | osmolality trend ([2]; sodium chloride drug containing solutions): no consistent trends over time in the infusion bag or after elution through the infusion sets | solution visual appearance ([2]; sodium chloride, all three concentrations, after 24 hours in bags and after elution): remained as clear and colorless solutions | decrease of pH over 24 hours in the infusion bags [2, 18]: ~0.5 pH unit | pH change after elution through the infusion sets [2, 18]: decrease by approximately a tenth of a pH | pH change after elution through the infusion sets [2, 19]: decrease by a few tenths of a pH | pH trend over time in the infusion bags [2, 19]: no consistent trends over time in the infusion bags | pH change after elution through the infusion sets [2, 20]: drop by a few tenths of a pH | pH change over time in the infusion bags [2, 20]: slight decrease by a tenth of a pH
